Data reported in ChEMBL document CHEMBL1201862, “PubChem BioAssay data set” (2004).
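In this assay, cells in 96-well plates receive the compound at five concentrations for 48 hours. Endpoints are linearly interpolated between the surrounding concentrations. GI50 is the concentration that inhibits growth by half.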 Calls of active or inactive are those of the source. No stated cut-off is given here; in the data, active = GI50 up to about 1.1 µM and inactive = higher.

Columns and labels:
Experiment in all cases: NCI-60 cell line screen, 48 h
[1] = tested on: SW-620
[2] = tested on: A549
[3] = tested on: NCI/ADR-RES
[4] = tested on: SK-OV-3
[5] = tested on: NCI-H226
[6] = tested on: LOX IMVI
[7] = tested on: COLO 205
[8] = tested on: OVCAR-5
[9] = tested on: HOP-92
[10] = tested on: UACC-62
[11] = tested on: HT-29
[12] = tested on: RXF 393
[13] = tested on: Malme-3M
[14] = tested on: OVCAR-4
[15] = tested on: NCI-H23
[16] = tested on: 786-0
[17] = tested on: OVCAR-8
[18] = tested on: IGROV-1
[19] = tested on: SK-MEL-5

Row | SMILES | GI50 [1] | GI50 [2] | GI50 [3] | GI50 [4] | GI50 [5] | GI50 [6] | GI50 [7] | GI50 [8] | GI50 [9] | GI50 [10] | GI50 [11] | GI50 [12] | GI50 [13] | GI50 [14] | GI50 [15] | GI50 [16] | GI50 [17] | GI50 [18] | GI50 [19]
1 | O=C1N=C(Nc2ccccc2Cl)N/C1=C\c1ccc(Cl)cc1Cl | 46.3 µM (inactive) | 98.9 µM (inactive) | 45.6 µM (inactive) | > 100 µM (inactive) | 25.1 µM (inactive) | > 100 µM (inactive) | 47.8 µM (inactive) | > 100 µM (inactive) | 39.9 µM (inactive) | > 100 µM (inactive) | > 100 µM (inactive) | 15.5 µM (inactive) | 53.6 µM (inactive) | 44.3 µM (inactive) | > 100 µM (inactive) | 68.2 µM (inactive) | 38.3 µM (inactive) | 79.4 µM (inactive) | 71.9 µM (inactive)
2 | COC(=O)c1c[nH]c2c1-c1cc(C(=O)OCc3ccccc3)n(S(=O)(=O)c3ccc(C)cc3)c1C(=O)C2=O | 0.214 µM (active) | 0.716 µM (active) | 0.45 µM (active) | 1.24 µM (inactive) | 0.729 µM (active) | 0.139 µM (active) | 0.805 µM (active) | 1.56 µM (inactive) | 0.27 µM (active) | 0.188 µM (active) | 0.473 µM (active) | 0.214 µM (active) | 0.103 µM (active) | 0.299 µM (active) | 0.149 µM (active) | 0.22 µM (active) | 0.237 µM (active) | 0.372 µM (active) | 0.132 µM (active)
3 | COC(=O)c1cc2c(cc1CC(Cc1ccc3c(c1)CCCC3)C(=O)OC)CCCC2 (stereo not drawn) | 80.9 µM (inactive) | 37.7 µM (inactive) | 41.3 µM (inactive) | 49.5 µM (inactive) | 59.3 µM (inactive) | 28.2 µM (inactive) | 33.2 µM (inactive) | 68.4 µM (inactive) | 44.9 µM (inactive) | > 100 µM (inactive) | 33.7 µM (inactive) | 25.8 µM (inactive) | 33.6 µM (inactive) | 29.9 µM (inactive) | 54.1 µM (inactive) | 45.4 µM (inactive) | 84.7 µM (inactive) | > 100 µM (inactive) | 24.5 µM (inactive)
4 | O=C1N2CCc3c([nH]c4ccccc34)C23CC2CCCCC12S3 (stereo not drawn) | > 100 µM (inactive) | > 100 µM (inactive) | > 100 µM (inactive) | > 100 µM (inactive) | > 100 µM (inactive) | > 100 µM (inactive) | > 100 µM (inactive) | > 100 µM (inactive) | > 100 µM (inactive) | > 100 µM (inactive) | > 100 µM (inactive) | > 100 µM (inactive) | > 100 µM (inactive) | > 100 µM (inactive) | > 100 µM (inactive) | > 100 µM (inactive) | > 100 µM (inactive) | > 100 µM (inactive) | 63.5 µM (inactive)
5 | CC1CC[C@@]2(OC1)OC1C[C@H]3[C@@H]4CC[C@H]5CC(OC6OC(CO)C(OC7OC(CO)C(O)C(O)C7OC7OC(CO)C(O)C(O)C7O)C(O)C6O)CCC5(C)[C@H]4CCC3(C)C1[C@@H]2C (stereo partly drawn) | 0.933 µM (active) | 2.1 µM (inactive) | 6.38 µM (inactive) | 1.57 µM (inactive) | 1.34 µM (inactive) | 1.76 µM (inactive) | 0.955 µM (active) | 2.25 µM (inactive) | 5.2 µM (inactive) | 8.95 µM (inactive) | 0.964 µM (active) | 1.05 µM (active) | 4.04 µM (inactive) | 1.14 µM (inactive) | 3.89 µM (inactive) | 1.56 µM (inactive) | 6.24 µM (inactive) | 1.04 µM (active) | 6.89 µM (inactive)
6 | COC1/C=C/C(C)C(C(C)C(OC)C(C)CCC(=O)C(C)C(C/C=C/N(C)C=O)OC)OC(=O)C=CC2OC2(C)CC(OC)C(OC)C2=CC(=O)O[C@@H](C(C)C(OC)CC(OC)/C=C/C(C)C(O)C1)[C@H]2O (stereo partly drawn) | 0.00379 µM (active) | 0.00349 µM (active) | 0.0254 µM (active) | 0.0205 µM (active) | 0.00615 µM (active) | 0.002 µM (active) | 0.0016 µM (active) | 0.0105 µM (active) | 0.0056 µM (active) | 0.0201 µM (active) | 0.00364 µM (active) | 0.0139 µM (active) | 0.00673 µM (active) | 0.0208 µM (active) | 0.0239 µM (active) | 0.00451 µM (active) | 0.00853 µM (active) | 0.00106 µM (active) | 0.0128 µM (active)
7 | O=Cc1ccc(-c2ccc(-c3ccc(CO)s3)o2)s1 | 2.22 µM (inactive) | 14.8 µM (inactive) | 10.6 µM (inactive) | 19.7 µM (inactive) | 0.0681 µM (active) | 9.04 µM (inactive) | 12.9 µM (inactive) |  | 17.5 µM (inactive) | 0.151 µM (active) | 7.83 µM (inactive) | 5.74 µM (inactive) | 18.2 µM (inactive) | 0.318 µM (active) | 21.9 µM (inactive) | 2.47 µM (inactive) | 7.28 µM (inactive) | 0.547 µM (active) | 5.48 µM (inactive)
8 | CC(=N\N)/C(C)=N/N=C(C)/C(C)=N/N | > 100 µM (inactive) | > 100 µM (inactive) | > 100 µM (inactive) | > 100 µM (inactive) | > 100 µM (inactive) | > 100 µM (inactive) | > 100 µM (inactive) | > 100 µM (inactive) | > 100 µM (inactive) |  | > 100 µM (inactive) | > 100 µM (inactive) | > 100 µM (inactive) | > 100 µM (inactive) | > 100 µM (inactive) | > 100 µM (inactive) | > 100 µM (inactive) | > 100 µM (inactive) | > 100 µM (inactive)
9 | COc1ccn(CC(=O)c2cc3ccccc3[nH]2)c(=O)n1 | > 100 µM (inactive) | > 100 µM (inactive) | > 100 µM (inactive) | > 100 µM (inactive) | > 100 µM (inactive) | > 100 µM (inactive) | > 100 µM (inactive) | > 100 µM (inactive) | 49.7 µM (inactive) | > 100 µM (inactive) | > 100 µM (inactive) | > 100 µM (inactive) | > 100 µM (inactive) | > 100 µM (inactive) | > 100 µM (inactive) | > 100 µM (inactive) | > 100 µM (inactive) | > 100 µM (inactive) | > 100 µM (inactive)
10 | CCOc1cc2c(NCCCN(CCO)CCO)ncnc2c(OCC)c1OCC | > 100 µM (inactive) | > 94.4 µM (inactive) | > 100 µM (inactive) | > 100 µM (inactive) | 21.7 µM (inactive) | > 100 µM (inactive) | 69.3 µM (inactive) | > 100 µM (inactive) | 34.3 µM (inactive) | > 100 µM (inactive) | > 65.6 µM (inactive) | > 82 µM (inactive) | 55.6 µM (inactive) | > 88.5 µM (inactive) | > 100 µM (inactive) | > 100 µM (inactive) | > 100 µM (inactive) | > 100 µM (inactive) | > 100 µM (inactive)
11 | CN(C)NC1=NS(=O)(=O)c2cc3c(cc2S1)N(N(C)C)C(=O)c1cc2c(cc1N(N(C)C)C3=O)SC(NN(C)C)=NS2(=O)=O | > 10 µM (inactive) | > 10 µM (inactive) | > 10 µM (inactive) | > 10 µM (inactive) | > 10 µM (inactive) | > 10 µM (inactive) | > 10 µM (inactive) | > 10 µM (inactive) | > 10 µM (inactive) |  | > 10 µM (inactive) | > 10 µM (inactive) | > 10 µM (inactive) | > 10 µM (inactive) | > 10 µM (inactive) | > 10 µM (inactive) | > 10 µM (inactive) | > 10 µM (inactive) | > 10 µM (inactive)
12 | C#CCSC(C=C=C)P(=O)(OC(C)C)OC(C)C (stereo not drawn) | 37.4 µM (inactive) | > 100 µM (inactive) | > 100 µM (inactive) | > 100 µM (inactive) | > 100 µM (inactive) | > 100 µM (inactive) | 58.5 µM (inactive) | > 100 µM (inactive) | > 100 µM (inactive) | > 100 µM (inactive) | 33 µM (inactive) | > 100 µM (inactive) | 31.4 µM (inactive) | > 100 µM (inactive) | > 100 µM (inactive) | 46.2 µM (inactive) | > 100 µM (inactive) | 45.7 µM (inactive) | > 100 µM (inactive)
13 | O=C1Nc2c(Cl)cc(Cl)cc2/C1=N/Nc1ccccc1[N+](=O)[O-] | > 100 µM (inactive) | 69.2 µM (inactive) | 40.3 µM (inactive) | 30.1 µM (inactive) | 49 µM (inactive) | 84.5 µM (inactive) | 92.5 µM (inactive) | > 100 µM (inactive) | 12 µM (inactive) | 22.2 µM (inactive) | > 100 µM (inactive) | 14.2 µM (inactive) | 29.2 µM (inactive) | 29 µM (inactive) | 26.1 µM (inactive) | 5.75 µM (inactive) | 30.3 µM (inactive) | 23.8 µM (inactive) | > 100 µM (inactive)
14 | CC1(c2nc3ccccc3[nH]2)CCC(C(N)=O)C(C)(C)O1 (stereo not drawn) | > 100 µM (inactive) | > 100 µM (inactive) | > 100 µM (inactive) | 55.2 µM (inactive) | > 100 µM (inactive) | > 100 µM (inactive) | > 100 µM (inactive) | > 100 µM (inactive) | > 100 µM (inactive) | > 100 µM (inactive) | > 100 µM (inactive) | > 100 µM (inactive) | > 100 µM (inactive) | > 100 µM (inactive) | > 100 µM (inactive) | > 100 µM (inactive) | > 100 µM (inactive) | > 100 µM (inactive) | > 100 µM (inactive)
